Activity calls are given as the source filed them. Some results are limits rather than exact numbers.

In data set [1] the target is T1, Carboxy-terminal domain RNA polymerase II polypeptide A small phosphatase 1 (Homo sapiens, UniProt Q9GZU7).
T1 sequence (Q9GZU7 whole entry): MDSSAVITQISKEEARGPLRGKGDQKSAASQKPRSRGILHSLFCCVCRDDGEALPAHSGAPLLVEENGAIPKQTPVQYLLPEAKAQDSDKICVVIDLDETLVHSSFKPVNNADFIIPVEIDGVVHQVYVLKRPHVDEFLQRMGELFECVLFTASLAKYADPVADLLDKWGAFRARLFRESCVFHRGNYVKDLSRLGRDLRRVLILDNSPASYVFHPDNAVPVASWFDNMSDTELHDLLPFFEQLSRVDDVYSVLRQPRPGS
Briefly: CTDSP1 inhibitors, concentration-response, biochemical, absorbance readout, ultra-high-throughput screen actives (AID 540297). The format is functional.

Data set [2] in a line: HPDE-C7 pancreatic duct cell viability loss – fluorescence, HTS (AID 430). Type of data set: functional, cell-based. The following applies: Homo sapiens.
The nature of data set [3]: viability loss of HPDE-C7K cells – cell-based, fluorescence, HTS, primary screen (AID 431). The following applies: Homo sapiens. Type of data set: functional.
In data set [4] the target is T2, Corticotropin-releasing factor receptor 2/Corticotropin-releasing factor-binding protein (Homo sapiens, UniProt P24387+Q13324).
T2 sequence (Q13324 whole entry): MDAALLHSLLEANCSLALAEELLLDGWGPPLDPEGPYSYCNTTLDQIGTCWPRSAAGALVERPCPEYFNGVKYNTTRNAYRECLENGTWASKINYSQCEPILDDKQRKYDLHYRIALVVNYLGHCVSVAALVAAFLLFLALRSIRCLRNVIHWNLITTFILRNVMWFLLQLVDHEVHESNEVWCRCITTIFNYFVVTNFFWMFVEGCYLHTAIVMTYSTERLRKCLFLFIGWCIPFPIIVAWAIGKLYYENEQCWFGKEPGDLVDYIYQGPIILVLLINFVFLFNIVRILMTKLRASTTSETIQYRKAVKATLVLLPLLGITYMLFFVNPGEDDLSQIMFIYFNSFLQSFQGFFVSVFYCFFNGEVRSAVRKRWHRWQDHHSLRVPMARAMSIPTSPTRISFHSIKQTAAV
T2 sequence (P24387 whole entry): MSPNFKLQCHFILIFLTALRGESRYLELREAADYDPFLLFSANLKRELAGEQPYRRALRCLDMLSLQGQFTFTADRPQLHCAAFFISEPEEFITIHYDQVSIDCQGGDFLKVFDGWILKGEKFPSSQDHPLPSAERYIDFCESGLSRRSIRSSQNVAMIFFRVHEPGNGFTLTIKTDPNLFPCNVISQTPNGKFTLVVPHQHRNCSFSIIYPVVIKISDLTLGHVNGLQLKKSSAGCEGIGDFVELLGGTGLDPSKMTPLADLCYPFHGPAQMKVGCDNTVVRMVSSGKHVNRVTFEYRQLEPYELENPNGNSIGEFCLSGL
Briefly: Dose Response confirmation of uHTS hits for small molecule antagonists of the CRF-binding protein and CRF-R2 receptor complex. Type of data set: functional. To be noted: read-out: IC50_Mean.

In data set [5] the target is T2, Corticotropin-releasing factor receptor 2/Corticotropin-releasing factor-binding protein. Description: activators of CRF receptor 2 with binding protein – uHTS hits, confirmation (AID 602473). To be noted: read-out: EC50_Mean. Type of data set: functional.
The target of data set [6] is T3, Short transient receptor potential channel 4 (Mus musculus, UniProt Q9QUQ5).
T3 sequence (Q9QUQ5 whole entry): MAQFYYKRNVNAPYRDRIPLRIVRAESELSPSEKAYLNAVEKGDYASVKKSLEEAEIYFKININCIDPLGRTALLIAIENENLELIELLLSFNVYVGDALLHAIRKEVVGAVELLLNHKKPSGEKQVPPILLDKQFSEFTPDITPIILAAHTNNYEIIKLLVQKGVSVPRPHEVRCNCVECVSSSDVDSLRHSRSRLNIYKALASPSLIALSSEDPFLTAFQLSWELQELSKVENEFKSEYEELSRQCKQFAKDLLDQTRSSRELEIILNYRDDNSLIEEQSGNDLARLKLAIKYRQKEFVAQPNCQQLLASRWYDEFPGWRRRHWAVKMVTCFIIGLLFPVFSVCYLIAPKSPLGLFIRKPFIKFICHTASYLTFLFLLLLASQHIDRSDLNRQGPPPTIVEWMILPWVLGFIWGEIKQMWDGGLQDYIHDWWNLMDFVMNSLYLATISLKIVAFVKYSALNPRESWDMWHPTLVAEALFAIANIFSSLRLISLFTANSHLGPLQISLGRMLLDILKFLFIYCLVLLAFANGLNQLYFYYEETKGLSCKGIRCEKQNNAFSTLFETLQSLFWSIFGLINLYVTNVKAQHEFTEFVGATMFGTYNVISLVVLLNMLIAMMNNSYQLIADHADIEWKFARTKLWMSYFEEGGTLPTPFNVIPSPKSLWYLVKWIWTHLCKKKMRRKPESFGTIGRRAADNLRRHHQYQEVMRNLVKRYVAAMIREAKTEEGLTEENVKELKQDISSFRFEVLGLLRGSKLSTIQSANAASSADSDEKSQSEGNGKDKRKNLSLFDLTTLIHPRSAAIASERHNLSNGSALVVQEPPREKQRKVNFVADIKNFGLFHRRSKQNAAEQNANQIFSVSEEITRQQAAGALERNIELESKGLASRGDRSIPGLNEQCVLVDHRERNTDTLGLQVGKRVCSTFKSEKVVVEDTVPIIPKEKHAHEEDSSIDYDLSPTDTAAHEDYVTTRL
Description: calcium entry via TRPC4 opening agents – cell-based, HEK293 TRPC4/mu-opioid, Fluo-4 calcium, dose response (AID 434937). The format is functional.

A further data set concerns the target Cytochrome P450 2C9 (Homo sapiens, UniProt P11712).
Another data set deals with Cytochrome P450 3A4 (Homo sapiens, UniProt P08684).
In the next data set the target is Prothrombin (Homo sapiens, UniProt P00734). Description: Thrombin 1536 HTS Dose Response Confirmation. [Related pubchem assays: 1046 (Thrombin 1536 HTS; hits were confirmed in this assay)]. Type of data set: functional.
Another data set concerns the target Cytochrome P450 2C19 (Homo sapiens, UniProt P33261). Briefly: Cytochrome panel assay with activity outcomes. Panel member name: p450-cyp2c19 Compounds with AC50 equal or less than 10 uM are considered active. Type of data set: functional. The following applies: read-out: AC50.
Data set [7] is described as follows: Trypanosoma cruzi growth suppression in host cells – NIH3T3 host cells, beta-gal luminescence, confirmation (AID 2044).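 Further: intracellular parasites grown in NIH/3T3 mouse fibroblasts as host cells; luminescent beta-galactosidase reporter signal from transgenic T. cruzi replicating inside host cells; inhibitors lower the luminescence signal.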 The format is functional, cell-based.
Data set [8] in a line: NIH3T3 cell viability loss – ATP luminescence, mouse fibroblasts, counter-screen, dose response (AID 2010).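 Further: cells exposed to compound for about 90 hours before reading.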 Type of data set: functional, cell-based.
For data set [9], the target named is T3, Short transient receptor potential channel 4. Description: block of DAMGO-driven TRPC4 calcium entry – cell-based, HEK293 TRPC4/mu-opioid, Fluo-4 calcium, dose response (AID 434942).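 Further: potency of inhibitors blocking the TRPC4 calcium response.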 The format is functional.
The nature of data set [10]: reduction of Shn3 3'UTR-driven luciferase in osteoblasts – cell-based, Clone20 osteoblasts, firefly luciferase, cherry-picked, dose response (AID 624132).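 Further: firefly luciferase luminescence from reporter carrying the Shn3 3'UTR in osteoblasts.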 Type of data set: functional.
Data set [11] in a line: loss of viability in HepG2 cells – cell-based, CellTiter-Glo, cherry-picked, cytotoxicity control for Shn3 inhibitor project, dose response (AID 624134). Type of data set: functional.
The target in the next data set is Paired box protein Pax-8 (Homo sapiens, UniProt Q06710). Description: PAX8 transcriptional activity inhibition in RMG-I – RMG-I cells, luciferase, cherry-pick, dose response (AID 687027).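 Further: luciferase reporter driven by Pax8 target thyroperoxidase promoter measured by SteadyGlo luminescence.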 Type of data set: functional, cell-based.
Data set [12] can be described thus: OVCAR-3 cell viability loss – plate reader, dry powder samples, PAX8 inhibitor project, dose response (AID 743044). The format is functional, cell-based.
Data set [13] can be described thus: OVCAR8 cell viability loss – plate reader, dry powder samples, PAX8 project, dose response (AID 743197). Type of data set: functional, cell-based. The following applies: OVCAR-8.
The target of another data set is Genome polyprotein (dengue virus type 2, UniProt P29990). Briefly: flavivirus cap methylation enzyme inhibition – biochemical, confirmation dose response, primary screen (AID 588689). Type of data set: functional.
Data set [14] in a line: growth inhibition of yeast DHODH-expressing 3D7 parasites – SYBR Green, dry powder samples, dose response (AID 1159570).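 Further: parasite growth measured after 72 hours of compound exposure.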 Type of data set: functional, cell-based.
A short description of data set [15]: P. falciparum Dd2 growth inhibitors, dose response, SYBR Green, cherry-picked samples (AID 1159567). The format is functional, cell-based.
A short description of data set [16]: Dd2 malaria parasite growth inhibition potency – SYBR Green, dry powder samples, dose response (AID 1159566).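 Further: potency for growth inhibition with lower SYBR green DNA signal.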 The format is functional, cell-based.
Data set [17] can be described thus: growth inhibition of PfATP4-mutant resistant parasites – NITD609-resistant line, SYBR Green, dry powder, dose response (AID 1159571).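 Further: parasites synchronized at ring stage by sorbitol before testing.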 Type of data set: functional, cell-based.

Sequence of Cytochrome P450 2C9 (P11712 whole entry): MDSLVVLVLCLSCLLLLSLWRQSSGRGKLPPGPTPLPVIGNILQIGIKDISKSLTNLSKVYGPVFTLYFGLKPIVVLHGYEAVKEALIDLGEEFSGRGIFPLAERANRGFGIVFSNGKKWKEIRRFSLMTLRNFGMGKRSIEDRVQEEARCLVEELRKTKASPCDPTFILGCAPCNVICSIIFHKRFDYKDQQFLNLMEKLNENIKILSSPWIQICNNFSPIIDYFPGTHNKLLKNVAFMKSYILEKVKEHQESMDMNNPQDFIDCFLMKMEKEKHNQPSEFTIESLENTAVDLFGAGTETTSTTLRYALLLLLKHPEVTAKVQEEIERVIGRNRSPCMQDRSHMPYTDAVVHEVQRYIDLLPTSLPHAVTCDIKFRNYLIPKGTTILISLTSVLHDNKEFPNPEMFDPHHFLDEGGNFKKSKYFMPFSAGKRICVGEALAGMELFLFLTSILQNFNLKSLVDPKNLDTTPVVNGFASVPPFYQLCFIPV
Sequence of Cytochrome P450 2C19 (P33261 whole entry): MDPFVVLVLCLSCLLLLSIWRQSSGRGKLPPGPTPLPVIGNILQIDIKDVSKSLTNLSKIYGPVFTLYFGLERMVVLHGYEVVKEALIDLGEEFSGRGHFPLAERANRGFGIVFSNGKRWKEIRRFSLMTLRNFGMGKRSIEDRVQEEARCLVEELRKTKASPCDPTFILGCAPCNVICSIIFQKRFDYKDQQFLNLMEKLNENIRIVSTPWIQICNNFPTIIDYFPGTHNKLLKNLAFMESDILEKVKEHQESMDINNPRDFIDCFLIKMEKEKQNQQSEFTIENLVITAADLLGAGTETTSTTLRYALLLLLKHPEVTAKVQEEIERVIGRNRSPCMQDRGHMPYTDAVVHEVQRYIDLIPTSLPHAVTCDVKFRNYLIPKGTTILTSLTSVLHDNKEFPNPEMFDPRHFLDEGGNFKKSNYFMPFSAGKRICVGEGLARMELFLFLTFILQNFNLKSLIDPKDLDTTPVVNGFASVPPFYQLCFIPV
Sequence of Paired box protein Pax-8 (Q06710 whole entry): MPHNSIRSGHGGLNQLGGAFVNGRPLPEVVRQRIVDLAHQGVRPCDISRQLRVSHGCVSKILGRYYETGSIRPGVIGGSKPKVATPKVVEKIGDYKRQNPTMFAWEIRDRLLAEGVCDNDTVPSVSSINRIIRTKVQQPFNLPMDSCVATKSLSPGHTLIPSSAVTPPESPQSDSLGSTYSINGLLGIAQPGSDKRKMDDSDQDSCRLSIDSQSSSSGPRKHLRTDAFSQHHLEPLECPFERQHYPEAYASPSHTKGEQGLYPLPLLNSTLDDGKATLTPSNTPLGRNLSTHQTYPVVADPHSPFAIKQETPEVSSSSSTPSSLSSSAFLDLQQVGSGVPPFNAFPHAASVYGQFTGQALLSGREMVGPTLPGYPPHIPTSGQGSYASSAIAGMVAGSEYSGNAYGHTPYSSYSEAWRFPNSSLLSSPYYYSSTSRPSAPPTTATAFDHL
Sequence of Cytochrome P450 3A4 (P08684 whole entry): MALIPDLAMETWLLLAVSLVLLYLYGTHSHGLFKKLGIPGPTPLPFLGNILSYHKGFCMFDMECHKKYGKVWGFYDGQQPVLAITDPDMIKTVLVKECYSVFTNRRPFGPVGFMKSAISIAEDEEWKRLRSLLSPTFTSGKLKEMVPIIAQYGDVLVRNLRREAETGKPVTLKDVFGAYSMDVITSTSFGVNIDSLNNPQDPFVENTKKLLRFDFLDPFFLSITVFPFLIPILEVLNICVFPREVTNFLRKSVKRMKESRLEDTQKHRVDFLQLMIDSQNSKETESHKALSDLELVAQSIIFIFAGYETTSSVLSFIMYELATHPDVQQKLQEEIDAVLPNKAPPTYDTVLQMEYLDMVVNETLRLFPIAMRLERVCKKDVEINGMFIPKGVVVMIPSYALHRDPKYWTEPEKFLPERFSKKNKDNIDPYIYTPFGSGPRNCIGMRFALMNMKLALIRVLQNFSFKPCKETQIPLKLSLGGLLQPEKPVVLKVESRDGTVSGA
Sequence of Genome polyprotein (P29990 2492-3391 limits assumed): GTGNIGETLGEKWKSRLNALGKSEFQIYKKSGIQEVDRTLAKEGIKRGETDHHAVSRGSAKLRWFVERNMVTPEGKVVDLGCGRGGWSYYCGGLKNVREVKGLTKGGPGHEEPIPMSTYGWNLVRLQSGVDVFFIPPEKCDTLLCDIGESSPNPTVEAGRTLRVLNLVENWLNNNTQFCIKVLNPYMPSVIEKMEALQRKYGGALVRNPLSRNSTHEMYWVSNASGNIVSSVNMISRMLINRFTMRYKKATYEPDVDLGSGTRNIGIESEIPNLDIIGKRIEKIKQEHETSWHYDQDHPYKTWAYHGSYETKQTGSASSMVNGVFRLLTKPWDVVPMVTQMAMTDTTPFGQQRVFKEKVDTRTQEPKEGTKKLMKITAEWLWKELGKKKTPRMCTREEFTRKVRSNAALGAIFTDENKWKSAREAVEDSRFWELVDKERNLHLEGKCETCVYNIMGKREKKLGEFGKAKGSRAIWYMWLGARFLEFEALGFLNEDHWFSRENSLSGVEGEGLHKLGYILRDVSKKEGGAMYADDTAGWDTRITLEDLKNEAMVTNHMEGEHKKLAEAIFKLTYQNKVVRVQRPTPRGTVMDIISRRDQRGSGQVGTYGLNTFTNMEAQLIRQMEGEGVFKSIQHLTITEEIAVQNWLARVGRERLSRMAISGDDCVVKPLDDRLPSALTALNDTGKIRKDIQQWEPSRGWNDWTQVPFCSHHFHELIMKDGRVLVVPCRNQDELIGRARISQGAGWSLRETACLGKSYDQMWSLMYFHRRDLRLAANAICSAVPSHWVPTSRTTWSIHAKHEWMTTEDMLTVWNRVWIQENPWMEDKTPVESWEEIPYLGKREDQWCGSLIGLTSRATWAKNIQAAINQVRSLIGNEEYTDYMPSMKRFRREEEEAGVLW

In the case of `Cc1ccc2nc(Cl)c(C3CC(c4cccs4)=NN3C(=O)CCCC(=O)O)cc2c1` (configuration not stated), the IC50 in [1] is 11.1 µM (active).

As to `CN1CCC2(CC1)Nc1nc(SCc3ccc(Cl)cc3)nn1C1=C2CN(C)CC1`, the EC50 was > 20 µM (not active) in data set [2], > 20 µM (not active) in [3] and > 53 µM (inactive) in data set [5]. Besides, in data set [4], the IC50 is > 47.1 µM (inactive).

With `CC(=O)Nc1nonc1-n1nnc(C(=O)NCc2ccccc2)c1C`, the EC50 in data set [2] and in [3] was > 20 µM (not active) throughout.

Turning to `CCCN(CCC(=O)Nc1cc(OC)cc(OC)c1)CC1CC1`, in [6], the EC50 is 1.33 µM (active).

With `CCCc1c(O)nc(SCCN(CC)CC)nc1O`, the EC50 in [6] was 1.68 µM (active).

As for `CN(C)c1oc(-c2ccccc2)nc1C#N`, the AC50 result at Cytochrome P450 2C9 is “inconclusive”.

As to `NS(=O)(=O)c1cc2c(cc1Cl)N[C@@H](CC1CCCC1)NS2(=O)=O`, the AC50 result at Cytochrome P450 2C9 is given as “inconclusive”.

On to `COc1ccc(-c2nc3cnc(N4CCNCC4)nc3n(Cc3ccc(F)cc3)c2=O)cc1`, for which the AC50 on Cytochrome P450 3A4 was 15.8 µM (inconclusive); on Cytochrome P450 2C9, “inconclusive”.

On to `Cc1cc(Br)ccc1OCCn1ccnc1`, for which the EC50 in data set [6] is 3.35 µM (active).

As to `Cc1ccc(S(=O)(=O)NC(=O)N2CCC(C)CC2)cc1`, at Prothrombin, the IC50 is listed as > 50 µM (not active).

With `N/C(=N\S(=O)(=O)c1ccccc1)c1ccc([N+](=O)[O-])cc1`, on Prothrombin, the IC50 is > 50 µM (not active).

Regarding `O=C(NCCc1cccs1)C1CC(c2c(Cl)cccc2Cl)=NO1` (configuration not stated), the AC50 is 0.282 µM (inconclusive) at Cytochrome P450 2C19 and “inconclusive” at Cytochrome P450 2C9.

With `CC(C)N1CCC2(CC1)N=C(c1ccc3c(c1)OCO3)CC(c1cc(Cl)ccc1O)N2` (configuration not stated), the EC50 in data set [2] was 4.25 µM (active); in data set [3], 3.54 µM (active).

For `CC(C)N1C(=O)CC2(CC[N+](C)(CCOC(=O)C(O)(c3ccccc3)c3ccccc3)CC2)C1=O` (configuration not stated), in data set [1], the IC50 was 6.22 µM (active).

`O=C(c1cccs1)n1nc(-c2cccnc2)nc1NCc1ccco1`: the IC50 on Prothrombin was 0.711 µM (active).

In the case of `Cc1cc2ncn(S(=O)(=O)N3CCOCC3)c2cc1C`, the IC50 against Prothrombin is reported as > 50 µM (not active).

Take `CCCC(=O)n1nc(-c2cccnc2)nc1N`: at Prothrombin, the IC50 is 0.986 µM (active). Further, the AC50 at Cytochrome P450 2C19 is 31.6 µM (inconclusive).

Take `Cc1cc(OCCCn2ccnc2)cc(C)c1Cl`: the results for the EC50 in [7], in data set [8] and in data set [6] were 0.852 µM (active), > 60 µM (not active) and 5.31 µM (active), respectively.

Turning to `O=C(NCc1ccccc1)C1=C[C@H](c2ccc3c(c2)OCO3)C[C@H](OCc2ccc(CO)cc2)O1`, the EC50 in data set [9] is 5.31 µM (active); in data set [6] it was 4.73 µM (active).

With `CCOC(=O)N(O)c1ccc(C=Cc2ccccc2)cc1`, the IC50 in data set [1] is 6.05 µM (active).

With `C[C@@H]1CCCCO[C@H](CN(C)Cc2ccccc2)[C@@H](C)CN([C@H](C)CO)C(=O)c2cc(NC(=O)c3ccccc3)ccc2O1`, the figures for the AC50 in data set [10] and in data set [11] were 31.2 µM (active) and > 70 µM (inactive), respectively.

For the molecule `C[C@H]1CN([C@@H](C)CO)S(=O)(=O)c2ccc(C#Cc3ccncc3)cc2O[C@H]1CN(C)C(=O)C1CCCCC1`, the AC50 at Paired box protein Pax-8 is 2.68 µM (active); in [12], 12.9 µM (active); in [13], 52.3 µM (active).

As for `CCOc1cc(/C=N/NC2=NC(=O)C(CC(=O)O)S2)ccc1OCc1ccccc1Cl` (configuration not stated), the IC50 is 51.7 µM (active) at Genome polyprotein and 4.28 µM (active) in [1].

Turning to `Cc1cc(C(=O)N/N=C/C=C/c2ccc(Br)cc2)[nH]n1`, the IC50 in data set [1] is 7.02 µM (active).

On to `COc1ccc(NC(=O)N2CCC3(CC2)CN(C(=O)C2CCC2)[C@H](CO)c2c3c3ccc(OC)cc3n2C)cc1`, for which the AC50 in [14] was 0.0417 µM (active); in [15] it was 0.969 µM (active); in data set [16], 0.0967 µM (active); in data set [17] it was 0.0845 µM (active).

Turning to `C[C@@H]1CN([C@@H](C)CO)S(=O)(=O)c2ccc(C#CC3CCCC3)cc2O[C@H]1CN(C)C(=O)Cc1ccncc1`, the AC50 is 2.98 µM (active) in data set [14], 1.16 µM (active) in data set [15], 0.722 µM (active) in [16] and 1.72 µM (active) in data set [17].

For the origin of these results see ChEMBL document CHEMBL1201862, “PubChem BioAssay data set” (2004).
